Reference: patent publication US11136311B2, “Heteroaromatic derivatives as NIK inhibitors” (Janssen Pharmaceutica NV, priority 2016, dated 2021)
Where two headings read alike, the source gives them in different places.

What was measured:
KMS12-BM cells = test: Antiproliferative activity on KMS12-BM (NIK WT) multiple myeloma cells (CellTiter-Glo); format: cell-based, human; conditions: Homo sapiens, KMS-12-BM, 96 h, KMS12-BM (NIK WT) cells, 96 hr; averaged values; read-out: KMS-12 Proliferation inhibition (IC50 (nM))
Procedure: (§1) Determination of antiproliferative activity on JJN-3 (NIK translocated) and KMS12-BM (NIK WT) multiple myeloma cells
(§2) All compounds tested were dissolved in DMSO and further dilutions were made in culture medium. Final DMSO concentration was 0.3% (v/v) in cell proliferation assays. Viability was assessed using CellTiter-Glo cell viability assay kit (Promega). The human JJN-3 and KMS12-BM cells (DSMZ) were cultured in RPMI 1640 medium supplemented with 2 mM L-glutamine, and 10% fetal calf serum (PAA). Cells were routinely kept as suspension cells at 37° C. in a humidified 5% CO2 atmosphere. Cells were passaged at a seeding density of 0.2×10^6/ml twice a week. Cells were seeded in black tissue culture treated 96-well plates (Perkin Elmer). Densities used for plating ranged from 15000 (JJN3) to 20000 (KMS12BM) cells per well in a total volume of 135 μl medium. Drugs and/or solvents were added (15 μl) to a final volume of 150 μl. Following 96 hr of treatment, plates were removed from the incubator and allowed to equilibrate to room temperature for approx 10 min. 75 μl CellTiter-Glo reagent was added to each well that was then covered (Perkin Elmer Topseal) and shaken on plate shaker for 10 min. Luminescence was measured on a HTS Topcount (Perkin Elmer). Within an experiment, the results for each treatment were the mean of 2 replicate wells. For initial screening purposes, compounds were tested using a 9 point dilution curve (serial 1:3 dilutions). For each experiment, controls (containing no drug) and a blank incubation (containing cells read at the time of compound addition) were run in parallel. The blank value was subtracted from all control and sample values. For each sample, the mean value for cell growth (in relative light units) was expressed as a percentage of the mean value for cell growth of the control.

[1] = tested on: P-IKKα levels in L363 cells; test: Effect of compounds on P-IKKα levels in L363 (NIK translocated multiple myeloma) cells; format: cell-based, human; conditions: averaged values, read-out: Inhibition of pIKKα_L-363 (IC50 (nM))
Procedure: Effect of compounds on P-IKKα levels in L363 (NIK translocated multiple myeloma) cells
All compounds tested were dissolved in DMSO and further dilutions were made in culture medium. Final DMSO concentration was 1% (v/v) in cell assays. The human L363 cells (ATCC) were cultured in RPMI 1640 medium supplemented with GlutaMax and 10% fetal calf serum (PAA). Cells were routinely maintained at densities of 0.2×10^6 cells per ml-1×10^6 cells per ml at 37° C. in a humidified 5% CO2 atmosphere. Cells were passaged twice a week splitting back to obtain the low density. Cells were seeded in 96 well plates (Nunc 167008) at 2×10^6 per ml media in a volume of 75 μl per well plus 25 μl 1 μg/ml recombinant human B-cell activating factor (BAFF/BLyS/TNFSF13B). Seeded cells were incubated at 37° C. in a humidified 5% CO2 atmosphere for 24 hr. Drugs and/or solvents were added (20 μl) to a final volume of 120 μl. Following 2 hr treatment plates were removed from the incubator and cell lysis was achieved by the addition of 30 μl 5× lysis buffer followed by shaking on a plate shaker at 4° C. for 10 min. At the end of this incubation lysed cells were centrifuged at 800×g for 20 min at 4° C. and the lysate was assessed for P-IKKα levels by sandwich immuno-assay carried out in anti-rabbit antibody coated Mesoscale plates. Within an experiment, the results for each treatment were the mean of 2 replicate wells. For initial screening purposes, compounds were tested using an 8 point dilution curve (serial 1:3 dilutions). For each experiment, controls (containing MG132 and BAFF but no test drug) and a blank incubation (containing MG132 and BAFF and 10 μM ADS125117, a test concentration known to give full inhibition) were run in parallel. The blank incubation value was subtracted from all control and sample values. To determine the IC50 a sigmoidal curve was fitted to the plot of % inhibition of control P-IKKα levels versus Log10 compound concentration.

[2] = molecular target: recombinant human NF-kappaB-inducing kinase (NIK/MAP3K14) (Homo sapiens (Human), UniProt Q99558); test: Inhibition of auto-phosphorylation of recombinant human NIK/MAP3K14 activity (AlphaScreen); format: biochemical; conditions: averaged values over all measurements on all batches
recombinant human NF-kappaB-inducing kinase (NIK/MAP3K14), sequence (Q99558 whole entry): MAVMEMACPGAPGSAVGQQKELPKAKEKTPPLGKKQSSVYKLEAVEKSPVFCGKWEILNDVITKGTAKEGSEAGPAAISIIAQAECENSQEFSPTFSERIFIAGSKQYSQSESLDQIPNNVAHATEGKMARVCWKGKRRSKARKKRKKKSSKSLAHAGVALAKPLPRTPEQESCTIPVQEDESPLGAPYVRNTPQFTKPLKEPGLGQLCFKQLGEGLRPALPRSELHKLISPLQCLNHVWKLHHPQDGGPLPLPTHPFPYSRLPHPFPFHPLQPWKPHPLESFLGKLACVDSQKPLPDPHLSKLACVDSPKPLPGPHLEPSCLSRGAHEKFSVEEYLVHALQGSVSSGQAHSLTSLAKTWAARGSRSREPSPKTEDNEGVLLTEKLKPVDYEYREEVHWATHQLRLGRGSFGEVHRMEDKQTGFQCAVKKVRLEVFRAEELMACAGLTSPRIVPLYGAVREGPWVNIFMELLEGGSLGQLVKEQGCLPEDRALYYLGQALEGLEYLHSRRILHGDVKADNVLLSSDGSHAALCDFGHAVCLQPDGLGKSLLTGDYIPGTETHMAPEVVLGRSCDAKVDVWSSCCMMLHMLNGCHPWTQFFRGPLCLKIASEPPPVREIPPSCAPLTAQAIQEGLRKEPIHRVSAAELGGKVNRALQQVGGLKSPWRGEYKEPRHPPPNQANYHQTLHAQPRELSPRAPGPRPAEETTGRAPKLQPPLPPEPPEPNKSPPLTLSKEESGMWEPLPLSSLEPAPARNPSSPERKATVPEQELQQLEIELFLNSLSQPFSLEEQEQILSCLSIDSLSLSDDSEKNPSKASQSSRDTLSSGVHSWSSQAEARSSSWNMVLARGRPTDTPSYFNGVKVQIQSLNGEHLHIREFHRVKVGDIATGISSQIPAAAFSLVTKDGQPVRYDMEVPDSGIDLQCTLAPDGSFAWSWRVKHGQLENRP
Procedure: Inhibition of auto-phosphorylation of recombinant human NF-kappaB-inducing kinase (NIK/MAP3K14) activity (AlphaScreen®)
NIK/MAP3K14 auto-phosphorylation activity was measured using the AlphaScreen® (αscreen) format (Perkin Elmer). All compounds tested were dissolved in dimethyl sulfoxide (DMSO) and further dilutions were made in assay buffer. Final DMSO concentration was 1% (v/v) in assays. Assay buffer was 50 mM Tris pH 7.5 containing 1 mM EGTA (ethylene glycol tetraacetic acid), 1 mM DTT (dithiothreitol), 0.1 mM Na3VO4, 5 mM MgCl2, 0.01% Tween® 20. Assays were carried out in 384 well Alphaplates (Perkin Elmer). Incubations consisted of compound, 25 microM Adenosine-5′-triphosphate (ATP), and 0.2 nM NIK/MAP3K14. Incubations were initiated by addition of GST-tagged NIK/MAP3K14 enzyme, carried out for 1 h at 25° C. and terminated by addition of stop buffer containing anti-phospho-IKK Ser176/180 antibody. Protein A Acceptor and Glutathione-Donor beads were added before reading using an EnVision® Multilabel Plate Reader (Perkin Elmer). Signal obtained in the wells containing blank samples was subtracted from all other wells and IC50's were determined by fitting a sigmoidal curve to % inhibition of control versus Log10 compound concentration.

JJN-3 cells = test: Antiproliferative activity on JJN-3 (NIK translocated) multiple myeloma cells (CellTiter-Glo); format: cell-based, human; conditions: Homo sapiens, JJN-3, 96 h, JJN-3 (NIK translocated) cells, 96 hr; averaged values; read-out: JJN-3 Proliferation inhibition (IC50 (nM))
Procedure: as §1, §2

[3] = Homo sapiens, L-363, L363 cells

| Compound | IC50 (KMS12-BM cells) [nM] | IC50 [1, 3] [nM] | IC50 [2] [nM] | IC50 (JJN-3 cells) [nM] | IC50 ([1]; L363 cells) [nM] |
| --- | --- | --- | --- | --- | --- |
| CNC(=O)c1cc(Nc2nccc(-c3cc(C#N)c4c(c3)[C@@](C)(CO)CN4)n2)nn1C(C)C [Compound 103] | 3020 | 4 | 2.6 | 71 |  |
| Cc1nn(C2CCN(C)CC2)cc1Nc1nccc(-c2cc(C#N)c3c(c2)[C@@](C)(CO)CN3)n1 [Compound 122] | ~1660 | 1020 | 6.8 | 479 |  |
| Cn1cc(Nc2nccc(-c3cc(C#N)c4c(c3)[C@@](C)(CO)CN4)n2)c(CN2CCOCC2)n1 [Compound 150] | > 10000 | 170 | 15 | 2400 |  |
| CNC(=O)c1cc(Nc2nccc(-c3cc(C#N)c4c(c3)[C@@](C)(CO)CN4)n2)n(C2CCCC2)n1 [Compound 196] | 5250 | 36 | 8.3 | 554 |  |
| CC(C)Cn1nc(Cl)cc1Nc1nccc(-c2cc(C#N)c3c(c2)[C@@](C)(CO)CN3)n1 [Compound 107] | 1350 | 9 | 3.8 | 55 |  |
| CC(C)n1nc(C(=O)N2CCCC2)cc1Nc1nccc(-c2cc(C#N)c3c(c2)[C@@](C)(CO)CN3)n1 [Compound 210] | > 10000 | 71 | 6.3 | 1580 |  |
| CNC(=O)c1cc(Nc2nccc(-c3cc(C#N)c4c(c3)[C@@](C)(CO)CN4)n2)n(CC(C)C)n1 [Compound 219] |  | 100 | 9.5 | 214 |  |
| CC(C)CCc1c(Nc2nccc(-c3cc(C#N)c4c(c3)[C@@](C)(CO)CN4)n2)cnn1CCN1CCOCC1 [Compound 125] | > 10000 | 1 | 3.5 | 120 |  |
| CC(C)n1nc(CO)cc1Nc1nccc(-c2cc(C#N)c3c(c2)[C@@](C)(CO)CN3)n1 [Compound 156] | ~7240 | 14 | 3.6 | 1260 |  |
| CCn1ncc(Nc2nccc(-c3cc(C#N)c4c(c3)[C@@](C)(CO)CN4)n2)c1N1CCOCC1 [Compound 199] | > 10000 | 25 | 3.5 | 1900 |  |
| CC(C)CCc1c(Nc2nccc(-c3cc(C#N)c4c(c3)[C@@](C)(CO)CN4)n2)cnn1C [Compound 99] | 9770 | 3 | 2.9 | 288 |  |
| Cc1cc(Nc2nccc(-c3cc(C#N)c4c(c3)[C@@](C)(CO)CN4)n2)n(CCN2CCOCC2)n1 [Compound 165] | > 10000 | 48 | 8.5 | 1620 |  |
| COCCOc1nn(CC(F)F)cc1Nc1nccc(-c2cc(C#N)c3c(c2)[C@@](C)(CO)CN3)n1 [Compound 217] | ~7620 | 11 | 4.6 | 154 |  |
| Cc1cc(Nc2nccc(-c3cc(C#N)c4c(c3)[C@@](C)(CO)CN4)n2)n(CC2CCn3ccnc3C2)n1 (mixture of isomers) [Compound 202] |  | 1950 | 7.2 |  |  |
| CNC(=O)c1cc(Nc2nccc(-c3cc(C#N)c4c(c3)[C@@](C)(CO)CN4)n2)n(CCC2CC2)n1 [Compound 198] | > 10000 | 20 | 6.8 | 112 |  |
| COCCn1nc(CO)cc1Nc1nccc(-c2cc(C#N)c3c(c2)[C@@](C)(CO)CN3)n1 [Compound 153] | > 10000 | 28 | 4.3 | 1440 |  |

| Compound | IC50 (KMS12-BM cells) [nM] | IC50 [1, 3] [nM] | IC50 [2] [nM] | IC50 (JJN-3 cells) [nM] | IC50 ([1]; L363 cells) [nM] |
| --- | --- | --- | --- | --- | --- |
| Cn1ncc(Nc2nccc(-c3cc(C#N)c4c(c3)[C@@](C)(CO)CN4)n2)c1OC1COC1 [Compound 193] |  | 91 | 25.1 |  |  |
| CN1CCN(Cc2c(Nc3nccc(-c4cc(C#N)c5c(c4)[C@@](C)(CO)CN5)n3)cnn2C)CC1 [Compound 209] |  | 141 | 28.2 |  |  |
| CNC(=O)c1c(Nc2nccc(-c3cc(C#N)c4c(c3)[C@@](C)(CO)CN4)n2)cnn1C [Compound 190] |  | 110 | 11.7 |  |  |
| Cc1cc(Nc2nccc(-c3cc(C#N)c4c(c3)[C@@](C)(CO)CN4)n2)n(CC(=O)N(C)C)n1 [Compound 206] |  | 31 | 2.9 |  |  |
| Cc1cc(Nc2nccc(-c3cc(C#N)c4c(c3)[C@@](C)(CO)CN4)n2)n(CC2CCN(CC(=O)O)CC2)n1 [Compound 214] |  | 2630 | 18.6 |  |  |
| C[C@]1(CO)CNc2c(C#N)cc(-c3ccnc(Nc4cn(CC(F)F)nc4C(=O)N4CCCC4)n3)cc21 [Compound 189] |  | 51 | 17 |  |  |
| Cc1nn(C)cc1Nc1nccc(-c2cc(C#N)c3c(c2)C(C)(CO)CN3)n1 (centres unmarked) [Compound 7] | ~1740 | 2 |  | 112 |  |
| CC(C)n1nc(C(=O)N(C)C2CC2)cc1Nc1nccc(-c2cc(C#N)c3c(c2)[C@@](C)(CO)CN3)n1 [Compound 211] |  | 204 | 14.8 |  |  |
| CN(C)C(=O)Cn1nc(Cl)cc1Nc1nccc(-c2cc(C#N)c3c(c2)[C@@](C)(CO)CN3)n1 [Compound 116] |  | 269 | 9.3 |  |  |
| Cn1ncc(Nc2nccc(-c3cc(C#N)c4c(c3)[C@@](C)(CO)CN4)n2)c1C(=O)N1CCCC1 [Compound 191] |  | 4470 | 107 |  |  |
| Cn1ccc(Nc2nccc(-c3cc(C#N)c4c(c3)[C@](C)(CN)CN4)n2)n1 [Compound 223] |  |  | 224 |  | 269 |
| Cc1cc(Nc2nccc(-c3cc(C#N)c4c(c3)[C@@](C)(CO)CN4)n2)n(CC2CCN(C)C(=O)C2)n1 (mixture of isomers) [Compound 171] |  | 1440 | 6.2 |  |  |
| Cn1ccc(Nc2nccc(-c3cc(C#N)c4c(c3)[C@@](C)(CN)CN4)n2)n1 [Compound 222] |  | 15 | 12 |  |  |
| CC(C)Oc1nn(CCN2CCOCC2)cc1Nc1nccc(-c2cc(C#N)c3c(c2)[C@@](C)(CO)CN3)n1 [Compound 207] |  | 93 | 15.5 |  |  |
| COCCCn1nc(C)cc1Nc1nccc(-c2cc(C#N)c3c(c2)[C@@](C)(CO)CN3)n1 [Compound 49] | 2090 | 11 |  | 134 |  |
| CN1CCOCC1c1cc(Nc2nccc(-c3cc(C#N)c4c(c3)[C@@](C)(CO)CN4)n2)nn1C (mixture of isomers) [Compound 215] |  | 3490 | 168 |  |  |
